The values below come from patent US20210395248A1, “INHIBITORS OF HUMAN IMMUNODEFICIENCY VIRUS REPLICATION” (ViiV HEALTHCARE UK (NO.5) LIMITED, priority 2018, published 2021).

Data set [1] is described as follows: Compound cytotoxicity, XTT-based colorimetric assay. It is filed as cell-based. Particulars: human. As for the experimental part:
Compound cytotoxicity and the corresponding CC50 values were determined using the same protocol as described in the antiviral assay except that uninfected cells were used. Cytotoxicity was assessed on day 4 in uninfected MT2 cells by using a XTT (2,3-bis [2-Methoxy-4-nitro-5-sulfophenyl]-2H-tetrazolium-5-carboxyanilide inner salt)-based colorimetric assay (Sigma-Aldrich, St Louis, Mo.).
A general note: Tetrazolium dyes change colour on reduction, which living cells bring about.

Data set [2] has as its system recombinant NL4-3 virus (Renilla luciferase reporter) in MT-2 cells. The data set is described as follows: HIV cell culture assay (antiviral activity, luciferase readout in infected MT-2 cells). It is filed as cell-based. Particulars: NL43. As for the experimental part:
HIV cell culture assay—MT-2 cells, 293T cells and the proviral DNA clone of NL4-3 virus were obtained from the NIH AIDS Research and Reference Reagent Program. MT-2 cells were propagated in RPMI 1640 media supplemented with 10% heat inactivated fetal bovine serum (FBS), […]. The 293T cells were propagated in DMEM media supplemented with 10% heat inactivated FBS, […]. A recombinant NL4-3 proviral clone, in which a section of the nef gene was replaced with the Renilla luciferase gene, was used to make the reference virus used in these studies. The recombinant virus was prepared through transfection of the recombinant NL4-3 proviral clone into 293T cells using Transit-293 Transfection Reagent from Mirus Bio LLC (Madison, Wis.). Supernatent was harvested after 2-3 days and the amount of virus present was titered in MT-2 cells using luciferase enzyme activity as a marker by measuring luciferase enzyme activity. Luciferase was quantitated using the EnduRen Live Cell Substrate from Promega (Madison, Wis.). Antiviral activities of compounds toward the recombinant virus were quantified by measuring luciferase activity in MT-2 cells infected for 4-5 days with the recombinant virus in the presence of serial dilutions of the compound.
The 50% effective concentration (EC50) was calculated by using the exponential form of the median effect equation where (Fa)=1/[1+(EC50/drug conc.)m] (Johnson V A, Byington RT. Infectivity Assay. In Techniques in HIV Research, ed. Aldovini A, Walker B D. 71-76. New York: Stockton Press. 1990). The 50% inhibitory concentration (EC50) was calculated by using the exponential form of the median effect equation where percent inhibition=1/[1+(EC50/drug concentration)m], where m is a parameter that reflects the slope of the concentration-response curve.

The mark [3] stands for this setting: uninfected MT2 cells, day 4, XTT, read-out: CC50.

Like-named read-outs stand apart in the source and are kept apart here.

As a reminder, the CC50 is the concentration at which the toxic effect on the cells reaches its halfway point. Usually EC50 stands for the midpoint of the concentration-response curve. Regarding `Cn1nc(NS(C)(=O)=O)c2c(Cl)ccc(-n3c([C@H](Cc4cc(F)cc(F)c4)NC(=O)Cn4nc(C(F)F)c5c4C(F)(F)[C@@H]4C[C@H]54)nc4nc(NCCC(F)F)ccc4c3=O)c21` (atropisomer, axis not shown; (P)) [Example 34, N—((S)-1-((3P)-3-(4-chloro-1-methyl-3-(methylsulfonamido)-1H-indazol-7-yl)-7-((3,3-difluoropropyl)amino)-4-oxo-3,4-dihydropyrido[2,3-d]pyrimidin-2-yl)-2-(3,5-difluorophenyl)ethyl)-2-((3bS,4aR)-3-(difluoromethyl)-5,5-difluoro-3b,4,4a,5-tetrahydro-1H-cyclopropa[3,4]cyclopenta[1,2-c]pyrazol-1-yl)acetamide], the CC50 at 4 days in data set [1] (setting [3]) was above 100 nM. Besides, in data set [2], the EC50 was 0.055 nM.

In the case of `C[C@@H]1CN(c2ccc3c(=O)n(-c4ccc(Cl)c5c(NS(=O)(=O)C6CC6)nn(CC(F)F)c45)c([C@H](Cc4cc(F)cc(F)c4)NC(=O)Cn4nc(C(F)F)c5c4C(F)(F)[C@@H]4C[C@H]54)nc3n2)C[C@H](C)O1` (atropisomer, axis not shown; (aR)) [Example 5, N—((S)-1-(3-(4-chloro-3-(cyclopropanesulfonamido)-1-(2,2-difluoroethyl)-1H-indazol-7-yl)-7-((2S,6R)-2,6-dimethylmorpholino)-4-oxo-3,4-dihydropyrido[2,3-d]pyrimidin-2-yl)-2-(3,5-difluorophenyl)ethyl)-2-((3bS,4aR)-3-(difluoromethyl)-5,5-difluoro-3b,4,4a,5-tetrahydro-1H-cyclopropa[3,4]cyclopenta[1,2-c]pyrazol-1-yl)acetamide], the CC50 at 4 days in data set [1] (setting [3]) was above 500 nM. In data set [2], the EC50 was found to be 0.03 nM.

With `Cn1nc(NS(C)(=O)=O)c2c(Cl)ccc(-n3c([C@H](Cc4cc(F)cc(F)c4)NC(=O)Cn4nc(C(F)F)c5c4C(F)(F)[C@@H]4C[C@H]54)nc4nc(N5CCO[C@H](C(F)(F)F)C5)ccc4c3=O)c21` (atropisomer, axis not shown; (P)) [Example 11, N—((S)-1-((3P)-3-(4-chloro-1-methyl-3-(methylsulfonamido)-1H-indazol-7-yl)-4-oxo-7-((S)-2-(trifluoromethyl)morpholino)-3,4-dihydropyrido[2,3-d]pyrimidin-2-yl)-2-(3,5-difluorophenyl)ethyl)-2-((3bS,4aR)-3-(difluoromethyl)-5,5-difluoro-3b,4,4a,5-tetrahydro-1H-cyclopropa[3,4]cyclopenta[1,2-c]pyrazol-1-yl)acetamide], the CC50 at 4 days in data set [1] (setting [3]) was above 100 nM. Further, the half-maximal effective concentration (EC50) in data set [2] was 0.019 nM.

Turning to `Cn1nc(NS(C)(=O)=O)c2c(Cl)ccc(-n3c([C@H](Cc4cc(F)cc(F)c4)NC(=O)Cn4nc(C(F)F)c5c4C(F)(F)[C@@H]4C[C@H]54)nc4nc(N5CC6CCC(C5)O6)ccc4c3=O)c21` [Example 21, N-((1S)-1-(7-(8-oxa-3-azabicyclo[3.2.1]octan-3-yl)-(3P)-3-(4-chloro-1-methyl-3-(methylsulfonamido)-1H-indazol-7-yl)-4-oxo-3,4-dihydropyrido[2,3-d]pyrimidin-2-yl)-2-(3,5-difluorophenyl)ethyl)-2-((3bS,4aR)-3-(difluoromethyl)-5,5-difluoro-3b,4,4a,5-tetrahydro-1H-cyclopropa[3,4]cyclopenta[1,2-c]pyrazol-1-yl)acetamide], the CC50 at 4 days in data set [1] (setting [3]) was above 100 nM. Further, in data set [2], the EC50 came to 0.058 nM.

As to `C[C@@H]1CN(c2ccc3c(=O)n(-c4ccc(Cl)c5c(NS(C)(=O)=O)nn(CC(F)F)c45)c([C@H](Cc4cc(F)cc(F)c4)NC(=O)Cn4nc(C(F)F)c5c4C(F)(F)[C@@H]4C[C@H]54)nc3n2)C[C@H](C)O1` (atropisomer, axis not shown; (aR)) [Example 3, N—((S)-1-(3-(4-chloro-1-(2,2-difluoroethyl)-3-(methylsulfonamido)-1H-indazol-7-yl)-7-((2S,6R)-2,6-dimethylmorpholino)-4-oxo-3,4-dihydropyrido[2,3-d]pyrimidin-2-yl)-2-(3,5-difluorophenyl)ethyl)-2-((3bS,4aR)-3-(difluoromethyl)-5,5-difluoro-3b,4,4a,5-tetrahydro-1H-cyclopropa[3,4]cyclopenta[1,2-c]pyrazol-1-yl)acetamide], in data set [1] (setting [3]), the CC50 at 4 days was above 500 nM. For the same compound, in data set [2], the EC50 came to 0.032 nM.

As to `C[C@@H]1CN(c2ccc3c(=O)n(-c4ccc(Cl)c5c(NS(C)(=O)=O)nn(CC(F)(F)F)c45)c([C@H](Cc4cc(F)cc(F)c4)NC(=O)Cn4nc(C(F)(F)F)c5c4C(F)(F)[C@@H]4C[C@H]54)nc3n2)C[C@H](C)O1` (atropisomer, axis not shown; (aR)) [Example 8, N—((S)-1-(3-(4-chloro-3-(methylsulfonamido)-1-(2,2,2-trifluoroethyl)-1H-indazol-7-yl)-7-((2S,6R)-2,6-dimethylmorpholino)-4-oxo-3,4-dihydropyrido[2,3-d]pyrimidin-2-yl)-2-(3,5-difluorophenyl)ethyl)-2-((3bS,4aR)-5,5-difluoro-3-(trifluoromethyl)-3b,4,4a,5-tetrahydro-1H-cyclopropa[3,4]cyclopenta[1,2-c]pyrazol-1-yl)acetamide], the CC50 at 4 days in data set [1] (setting [3]) was above 500 nM. The EC50 in data set [2] was 0.032 nM.

With `C[C@@H]1CN(c2ccc3c(=O)n(-c4ccc(Cl)c5c(NS(C)(=O)=O)nn(C)c45)c([C@H](Cc4cc(F)cc(F)c4)NC(=O)Cn4ccc(C5CC5)n4)nc3n2)C[C@H](C)O1` (atropisomer, axis not shown; (P)) [Example 16, N—((S)-1-((3P)-3-(4-chloro-1-methyl-3-(methylsulfonamido)-1H-indazol-7-yl)-7-((2S,6R)-2,6-dimethylmorpholino)-4-oxo-3,4-dihydropyrido[2,3-d]pyrimidin-2-yl)-2-(3,5-difluorophenyl)ethyl)-2-(3-cyclopropyl-1H-pyrazol-1-yl)acetamide], in data set [1] (setting [3]), the CC50 at 4 days is above 500 nM. Moreover, the EC50 in data set [2] was found to be 0.2 nM.

For the compound `Cn1nc(NS(C)(=O)=O)c2c(Cl)ccc(-n3c([C@H](Cc4cc(F)cc(F)c4)NC(=O)Cn4nc(C(F)F)c5c4C(F)(F)[C@@H]4C[C@H]54)nc4nc(N(CCC(F)(F)F)CC5CC5)ccc4c3=O)c21` (atropisomer, axis not shown; (P)) [Example 14, N—((S)-1-((3P)-3-(4-chloro-1-methyl-3-(methylsulfonamido)-1H-indazol-7-yl)-7-((cyclopropylmethyl)(3,3,3-trifluoropropyl)amino)-4-oxo-3,4-dihydropyrido[2,3-d]pyrimidin-2-yl)-2-(3,5-difluorophenyl)ethyl)-2-((3bS,4aR)-3-(difluoromethyl)-5,5-difluoro-3b,4,4a,5-tetrahydro-1H-cyclopropa[3,4]cyclopenta[1,2-c]pyrazol-1-yl)acetamide], in data set [1] (setting [3]), the CC50 at 4 days is above 100 nM. Also, the EC50 in data set [2] was 0.11 nM.

For the compound `Cn1nc(NS(C)(=O)=O)c2c(Cl)ccc(-n3c([C@H](Cc4cc(F)cc(F)c4)NC(=O)Cn4nc(C(F)F)c5c4C(F)(F)[C@@H]4C[C@H]54)nc4nc(N5C6CCC5COC6)ccc4c3=O)c21` [Example 20, N-((1S)-1-(7-(3-oxa-8-azabicyclo[3.2.1]octan-8-yl)-(3P)-3-(4-chloro-1-methyl-3-(methylsulfonamido)-1H-indazol-7-yl)-4-oxo-3,4-dihydropyrido[2,3-d]pyrimidin-2-yl)-2-(3,5-difluorophenyl)ethyl)-2-((3bS,4aR)-3-(difluoromethyl)-5,5-difluoro-3b,4,4a,5-tetrahydro-1H-cyclopropa[3,4]cyclopenta[1,2-c]pyrazol-1-yl)acetamide], the CC50 at 4 days in data set [1] is above 100 nM. Moreover, the EC50 in data set [2] is 0.05 nM.

For the compound `C[C@@H]1CN(c2ccc3c(=O)n(-c4ccc(Cl)c5c(NS(C)(=O)=O)nn(CC(F)(F)F)c45)c([C@H](Cc4cc(F)cc(F)c4)NC(=O)Cn4nc(C(F)F)c5c4C(F)(F)[C@@H]4C[C@H]54)nc3n2)C[C@H](C)O1` (atropisomer, axis not shown; (aR)) [Example 7, N—((S)-1-(3-(4-chloro-3-(methylsulfonamido)-1-(2,2,2-trifluoroethyl)-1H-indazol-7-yl)-7-((2S,6R)-2,6-dimethylmorpholino)-4-oxo-3,4-dihydropyrido[2,3-d]pyrimidin-2-yl)-2-(3,5-difluorophenyl)ethyl)-2-((3bS,4aR)-3-(difluoromethyl)-5,5-difluoro-3b,4,4a,5-tetrahydro-1H-cyclopropa[3,4]cyclopenta[1,2-c]pyrazol-1-yl)acetamide], in data set [1] (setting [3]), the CC50 at 4 days was above 500 nM. Further, in data set [2], the EC50 amounted to 0.028 nM.
